Reference: patent US12528774B2, “Thiosemicarbazone compounds and uses thereof” (The Regents of the University of California, priority 2019, dated 2026)

Legend:
[1] = tested on: MIAPACA2 cells; assay: ROS measurements (CM-H2DCFDA, MitoSOX); format: cell-based, human; details: 24 h
Method: FIGS. 2A-2I. FIG. 2A: representative immunoblots of MIAPACA2 PDAC cells treated as indicated for 24h. FIGS. 2B-2C: reactive oxygen species (ROS) measurement using CM-H2DCFDA staining after HCT13 (25 nM)+Cu(II) (20 μM) treatment for 24h; mean fluorescence intensity (MFI); mean±SD, n=2, Student t-test, ***P<0.001. FIG. 2D-2E: mitochondrial ROS detection using MitoSOX staining in MIAPACA2 PDAC cells treated with HCT-13 (25 nM)+Cu(II) (20 μM) for 24h; mean±SD, n=2, Student t-test, ***P<0.001. FIG. 2F: oxygen consumption rate (OCR) of MIAPACA2 PDAC cells treated with HCT-13 (25 nM)+Cu(II) (20 μM). FIG. 2G: OCR of isolated mitochondria measured with or without HCT-13 (25 nM)+Cu(II) (20 μM). FIG. 2H: viability of 143 BTK parental (wild type, WT) and po cells after 48 h of treatment with the indicated HCT-13 concentrations+Cu(II) (20 μM) treatment, assessed with trypan blue staining; mean±SD, n=2, Student t-test, ***P<0.001. […]
ROS Measurements: Cellular ROS measurement was assayed with CM-H2DCFDA staining after treatment according to manufacturer's instructions (Reactive Oxygen Species (ROS) Detection Reagents, Invitrogen, #D399). […] The samples were analyzed using flow cytometry.
Mitochondrial ROS was measured using MitoSOX staining according to manufacturer's instructions (MitoSOX, Invitrogen, #M36008). […]
ROS Measurements. […] The samples were analyzed using flow cytometry. […]

[2] = tested on: MIAPACA2 cells; assay: Mito Stress Test (oxygen consumption rate, Seahorse); format: cell-based, human; details: HCT13 25 nM + Cu(II) 20 μM, 24 h
Method: FIG. 3A: Mito Stress Test of MIAPACA2 PDAC cells treated with HCT13 (25 nM)+Cu(II) (20 μM) for 24h. FIG. 3B: electron flow assay in isolated mitochondria treated with HCT-13 (100 nM)+Cu(II) (20 μM) for 1h. FIG. 3C: viability of 143 BTK parental (wild type, WT) and ρ0 cells after 48h of the indicated HCT13 concentration+Cu(II) (20 μM) treatment, assessed with Trypan Blue Staining. FIG. 3D: 48h cell cycle histogram and plots of S-phase arrest plots in 143 BTK WT and 143 BTK ρ0 cells at 24, 48 and 72h following treatment with indicated concentrations of HCT13+Cu(II)(20 μM). (mean±SD, n=2, one-way ANOVA corrected for multiple comparisons by Bonferroni adjustment, * P<0.05; ** P<0.01; *** P<0.001). […]
Mito Stress Test and Electron Flow Assay: All oxygen consumption rate (OCR) was measured using a XF24 Analyzer (Agilent) and normalized per μg protein. […] OCR was measured before (total respiration) and after the sequential injection of 1 μM oligomycin (complex V inhibitor), 0.75 μM FCCP (uncoupler), and 1 μM of rotenone and myxothiazol (complex I and III inhibitors, respectively), as described previously (1). Mitochondrial respiration was calculated by subtracting the non-mitochondrial respiration left after rotenone and myxothiazol injection. […] OCR was measured before and after the sequential injections described in the previous paragraph. […]

## CN(C)C(=S)N/N=C/c1nccc2cc(F)ccc12 (mixture of isomers) [HCT13, (E)-2-((6-Fluoroisoquinolin-1-yl)methylene)-N,N-dimethylhydrazine-1-carbothioamide and (Z)-2-((6-Fluoroisoquinolin-1-yl)methylene)-N,N-dimethylhydrazine-1-carbothioamide]
[1]; HCT13 25 nM + Cu(II) 20 μM
  ROS generation (CM-H2DCFDA staining): induced ROS generation
[1]; HCT-13 25 nM + Cu(II) 20 μM
  mitochondrial ROS (MitoSOX): also observed in the mitochondria
[2]
  basal respiration and maximum respiratory capacity (OCR): significantly reduced
[2]; listed as HCT-13
  basal respiration and maximum respiratory capacity (OCR): decreased significantly
